Measurements published in ChEMBL document CHEMBL1152078, “An efficient preparation of the potent and selective pseudopeptide thrombin inhibitor, inogatran” (Bioorg Med Chem Lett, 1997).

Legend:
[1] = The compound was evaluated for bioavailability in dogs; 34-44; format: ADME, organism-based, Canis lupus familiaris; details: dog, in vivo; read-out: Bioavailabiility
[2] = The compound was evaluated for bioavailability in rats; 32-51; format: ADME, organism-based; details: rat, in vivo; read-out: Bioavailabiility

bioavailability [1]: 44%
bioavailability [2]: 51%
Compound: Cl.Cl.N=C(N)NCCCNC(=O)[C@@H]1CCCCN1C(=O)[C@@H](CC1CCCCC1)NCC(=O)O
